Assay results reported in ChEMBL document CHEMBL1201862, “PubChem BioAssay data set” (2004).
“And” between values parts separate entries of the source, which are not always exact repeats. Equal entries are not always repeated.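 Results reflect a 48-hour exposure of cells in 96-well plates to compound at five concentrations. At the GI50, growth is halved.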 The source made the active and inactive calls. No stated cut-off is given here; in the data, active = GI50 up to about 1.1 µM and inactive = higher. Peptide text beside a SMILES is read from it. * marks the point of attachment. Cbz = O=C(OCc1ccccc1)*; NHNH2 = NN*

What was measured:
Experiment in all cases: NCI tumour cell line growth inhibition, 48 h
A498 = tested on: A498
CCRF-CEM = tested on: CCRF-CEM
DU-145 = tested on: DU-145
HCC 2998 = tested on: HCC 2998
HCT-15 = tested on: HCT-15
IGROV-1 = tested on: IGROV-1
MDA-N = tested on: MDA-N
NCI-H23 = tested on: NCI-H23
OVCAR-3 = tested on: OVCAR-3
SF-268 = tested on: SF-268
SF-295 = tested on: SF-295
SK-MEL-28 = tested on: SK-MEL-28
SNB-19 = tested on: SNB-19
SNB-75 = tested on: SNB-75
SW-620 = tested on: SW-620
T47D = tested on: T47D
TK-10 = tested on: TK-10
U-251 = tested on: U-251
UO-31 = tested on: UO-31
MCF7 = tested on: MCF7

Measured: GI50

N#Cc1[nH]c(=O)n(-c2ccccc2)c1N
active: SF-295 0.279 µM
> 10 µM: HCT-15
inactive: A498 > 10 µM | CCRF-CEM > 10 µM | DU-145 > 10 µM | HCC 2998 > 10 µM | IGROV-1 > 10 µM | MDA-N > 10 µM | NCI-H23 > 10 µM | OVCAR-3 > 10 µM | SF-268 > 10 µM | SK-MEL-28 > 10 µM | SNB-19 > 10 µM | SNB-75 6.52 µM | SW-620 > 10 µM | T47D > 10 µM | TK-10 > 10 µM | U-251 > 10 µM | UO-31 > 10 µM

CCN(CC)c1nc(N(C)C)c2ccccc2n1
33.3 µM: HCT-15
inactive: HCC 2998 15.3 µM | IGROV-1 37 µM | MCF7 29.2 µM | MDA-N 16.5 µM | NCI-H23 23.2 µM | SF-268 52.2 µM | SF-295 33.1 µM | SK-MEL-28 31.8 µM | SNB-19 39.9 µM | SNB-75 34.8 µM | SW-620 32.1 µM | T47D 22.9 µM | TK-10 44.7 µM | U-251 28.4 µM | UO-31 19.3 µM

CC1CC/C(=C\c2ccc(F)cc2)C2=C1C(c1ccc(F)cc1)n1c(s/c(=C/c3cccc(Br)c3)c1=O)=N2 (configuration not stated)
inactive: A498 > 100 µM | CCRF-CEM > 100 µM | DU-145 > 100 µM | IGROV-1 > 100 µM | MCF7 > 100 µM | MDA-N > 100 µM | SF-268 > 100 µM | SK-MEL-28 > 100 µM | SNB-19 > 100 µM | SNB-75 > 100 µM | SW-620 > 100 µM | TK-10 > 100 µM | U-251 > 100 µM
> 100 µM: HCT-15

Cc1ccc(/N=N/c2c(O)ccc3ccccc23)cc1
64 µM: HCT-15
inactive: A498 > 100 µM | CCRF-CEM 27.1 µM | DU-145 > 100 µM | IGROV-1 > 100 µM | MDA-N > 100 µM | NCI-H23 > 100 µM | OVCAR-3 32.4 µM | SF-268 > 100 µM | SF-295 > 100 µM | SK-MEL-28 > 100 µM | SNB-19 95.7 µM | SNB-75 > 100 µM | SW-620 63.4 µM | T47D > 100 µM | TK-10 > 100 µM | U-251 53.6 µM | UO-31 > 100 µM

C[C@]12CC[C@H]3[C@@H](CC=C4C[C@@H](O)CC[C@@]43C)[C@@H]1C/C(=C\c1cccnc1)[C@@H]2O
38.1 µM: HCT-15
inactive: A498 7.14 µM | CCRF-CEM 23.6 µM | DU-145 13.5 µM | IGROV-1 24.7 µM | MCF7 6.75 µM | MDA-N > 100 µM | NCI-H23 13.1 µM | SF-295 2.55 µM | SK-MEL-28 32.1 µM | SNB-19 16 µM | SW-620 89.9 µM | TK-10 19.6 µM | U-251 6.27 µM | UO-31 55.5 µM

C[C@H](CCCOS(C)(=O)=O)[C@H]1CC[C@H]2[C@@H]3CC[C@@H]4C[C@H](OS(C)(=O)=O)CC[C@]4(C)[C@H]3CC[C@]12C
inactive: A498 22.3 µM | CCRF-CEM > 100 µM | DU-145 27 µM | IGROV-1 30.1 µM | MCF7 26.4 µM | NCI-H23 16.6 µM | OVCAR-3 21.4 µM | SF-268 27 µM | SF-295 37.5 µM | SK-MEL-28 > 100 µM | SNB-19 27.5 µM | SNB-75 31.8 µM | SW-620 56 µM | T47D 24.8 µM | TK-10 15.7 µM | U-251 15.9 µM | UO-31 34 µM
66.8 µM: HCT-15

Cn1c(=O)c2nc(CCCCC(=O)O)[nH]c2n(C)c1=O
> 100 µM: HCT-15
inactive: A498 > 100 µM | CCRF-CEM > 100 µM | DU-145 > 100 µM | HCC 2998 > 100 µM | IGROV-1 61.7 µM | MDA-N > 100 µM | NCI-H23 > 100 µM | OVCAR-3 > 100 µM | SF-268 > 100 µM | SF-295 > 100 µM | SK-MEL-28 > 100 µM | SNB-19 > 100 µM | SNB-75 > 100 µM | SW-620 > 100 µM | T47D > 100 µM | TK-10 > 100 µM | U-251 > 100 µM | UO-31 > 100 µM

O=[N+]([O-])c1ccc(-c2nn3c(C45CC6CC(CC(C6)C4)C5)nnc3s2)c(Cl)c1
> 100 µM: HCT-15
inactive: A498 > 100 µM | CCRF-CEM > 100 µM | DU-145 > 100 µM | HCC 2998 > 100 µM | IGROV-1 > 100 µM | MDA-N > 100 µM | NCI-H23 > 100 µM | OVCAR-3 > 100 µM | SF-268 > 100 µM | SF-295 > 100 µM | SK-MEL-28 > 100 µM | SNB-19 > 100 µM | SNB-75 > 100 µM | SW-620 > 100 µM | T47D > 100 µM | TK-10 > 100 µM | U-251 > 100 µM | UO-31 > 100 µM

COc1cc(C2C(Cl)C(=O)N2c2c(C)n(C)n(-c3ccccc3)c2=O)ccc1O (configuration not stated)
inactive: CCRF-CEM 22.7 µM | DU-145 29.7 µM | IGROV-1 14.1 µM | MCF7 13.2 µM | MDA-N 15.6 µM | NCI-H23 14.7 µM | OVCAR-3 28.2 µM | SF-268 24.9 µM | SF-295 22.2 µM | SW-620 15 µM | T47D 44.3 µM | TK-10 24.7 µM | U-251 18 µM | UO-31 16.9 µM

COc1cc(-c2c(C(C)=O)c(-c3ccccc3)n(C3OC(COC(C)=O)C(OC(C)=O)C(OC(C)=O)C3OC(C)=O)c(=S)c2C#N)ccc1O (configuration not stated)
inactive: A498 > 100 µM | CCRF-CEM 58.3 µM | DU-145 55.3 µM and 58.1 µM | MCF7 > 100 µM and 81.5 µM | MDA-N 33 µM and 49.8 µM | NCI-H23 72.8 µM | SF-268 > 100 µM | SF-295 > 100 µM | SK-MEL-28 > 100 µM | SNB-19 > 100 µM | SW-620 > 100 µM | U-251 > 100 µM | UO-31 > 100 µM and 55.1 µM
> 100 µM: HCT-15

O=C1OCC2OC(=O)c3cc(O)c(O)c(O)c3-c3c(O)c(O)c(O)c4c3C(=O)OC(C2OC(=O)c2cc(O)c(O)c(O)c2-c2c1cc(O)c(O)c2O)C1OC(=O)C2C4=C(O)C(=O)C23Oc2cc(O)c4c(c2[C@H]13)O[C@H](c1ccc(O)c(O)c1)[C@@H](O)C4 (some centres not stated)
18.4 µM: HCT-15
inactive: A498 > 100 µM | CCRF-CEM 19.4 µM | DU-145 30.9 µM | HCC 2998 25.2 µM | IGROV-1 26.4 µM | MCF7 23.1 µM | NCI-H23 19.8 µM | OVCAR-3 30.1 µM | SF-268 19 µM | SF-295 19.8 µM | SK-MEL-28 66.7 µM | SNB-19 41.4 µM | SNB-75 28.4 µM | SW-620 20.6 µM | T47D 20.7 µM | U-251 16.6 µM | UO-31 17.8 µM

Nc1cc(C2CCCc3c2[nH]c2ccccc32)ccc1O (configuration not stated)
inactive: A498 > 100 µM | DU-145 26 µM | HCC 2998 64.7 µM | IGROV-1 38.2 µM | MCF7 24.8 µM | NCI-H23 36.5 µM | OVCAR-3 22.3 µM | SF-268 45.9 µM | SF-295 14.4 µM | SK-MEL-28 > 100 µM | SNB-19 > 100 µM | SNB-75 52 µM | SW-620 23.6 µM | T47D 14.3 µM | TK-10 > 100 µM | U-251 48.2 µM | UO-31 10.5 µM
55.3 µM: HCT-15
active: CCRF-CEM 0.76 µM

CC(=O)Nc1oc(C)c(C)c1S(=O)(=O)c1ccc(Cl)cc1
inactive: A498 > 100 µM | CCRF-CEM 79.8 µM | DU-145 85.3 µM | HCC 2998 41.3 µM | IGROV-1 70 µM | MCF7 19.5 µM | NCI-H23 43.3 µM | OVCAR-3 27.5 µM | SF-268 33.7 µM | SF-295 44.6 µM | SK-MEL-28 95.3 µM | SNB-19 > 100 µM | SNB-75 34.4 µM | SW-620 > 100 µM | T47D 52.7 µM | TK-10 60.5 µM | U-251 92 µM | UO-31 39 µM
41.8 µM: HCT-15

CCOC(OCC)C(CCc1ccccc1)c1c(N)nc(N)[nH]c1=O (configuration not stated)
inactive: A498 > 100 µM | CCRF-CEM 53.6 µM | DU-145 83.9 µM | HCC 2998 26.1 µM | IGROV-1 37.1 µM | MCF7 33.1 µM | NCI-H23 79.8 µM | OVCAR-3 62.4 µM | SF-268 52 µM | SF-295 53.1 µM | SK-MEL-28 > 100 µM | SNB-19 > 100 µM | SNB-75 > 100 µM | SW-620 78.7 µM | T47D 68.7 µM | TK-10 66.2 µM | U-251 81.1 µM | UO-31 34.8 µM
68.7 µM: HCT-15

COC(=O)CC(NC(=O)OCc1ccccc1)C(=O)NC(CC(=O)OC)C(=O)NC(CC(=O)OC)C(=O)NC(CC(=O)OC)C(=O)NC(CC(=O)OC)C(=O)NC(CC(=O)OC)C(=O)NN (configuration not stated) (Cbz-D(OMe)D(OMe)D(OMe)D(OMe)D(OMe)D(OMe)-NHNH2; configuration not given here)
> 100 µM: HCT-15
inactive: CCRF-CEM > 100 µM | HCC 2998 > 100 µM | IGROV-1 > 100 µM | MCF7 > 100 µM | MDA-N > 100 µM | SF-268 > 100 µM | SF-295 > 100 µM | SK-MEL-28 > 100 µM | SNB-19 > 100 µM | SNB-75 > 100 µM | SW-620 > 100 µM | T47D > 100 µM | TK-10 > 100 µM | U-251 > 100 µM | UO-31 > 100 µM
